Results as given in patent US9815851B2, “Pyrrolo carboxamides as modulators of orphan nuclear receptor RAR-related orphan receptor-gamma (RORγ, NR1F3) activity and for the treatment of chronic inflammatory and autoimmune diseases” (PHENEX PHARMACEUTICALS AG, priority 2011, dated 2017).
Read-outs that look alike come from different tables or passages of the source.

Columns and labels:
[1] = biological target: T1, RORγ ligand binding domain (LBD) (Homo sapiens, UniProt P51449); experiment: TR-FRET Activity Assay (ligand sensing, RORγ-LBD / coactivator peptide interaction, LANCE); format: biochemical
T1 construct: made in house; host or cells: E. coli BL-21 (BL3), vector pDEST15
T1 sequence (P51449 269-508 limits assumed): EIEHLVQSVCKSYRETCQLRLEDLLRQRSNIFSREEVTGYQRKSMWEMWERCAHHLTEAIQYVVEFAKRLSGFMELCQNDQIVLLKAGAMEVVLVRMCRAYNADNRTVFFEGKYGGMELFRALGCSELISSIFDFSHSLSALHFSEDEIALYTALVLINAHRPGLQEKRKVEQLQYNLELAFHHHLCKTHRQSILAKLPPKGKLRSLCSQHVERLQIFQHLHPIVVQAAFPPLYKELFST

RORγ = biological target: T2, RORγ (UniProt P51449); experiment: RORγ Gal4 Reporter Gene Assay in 293T cells (firefly and renilla luciferase); format: cell-based, human
T2 sequence (P51449 1-518): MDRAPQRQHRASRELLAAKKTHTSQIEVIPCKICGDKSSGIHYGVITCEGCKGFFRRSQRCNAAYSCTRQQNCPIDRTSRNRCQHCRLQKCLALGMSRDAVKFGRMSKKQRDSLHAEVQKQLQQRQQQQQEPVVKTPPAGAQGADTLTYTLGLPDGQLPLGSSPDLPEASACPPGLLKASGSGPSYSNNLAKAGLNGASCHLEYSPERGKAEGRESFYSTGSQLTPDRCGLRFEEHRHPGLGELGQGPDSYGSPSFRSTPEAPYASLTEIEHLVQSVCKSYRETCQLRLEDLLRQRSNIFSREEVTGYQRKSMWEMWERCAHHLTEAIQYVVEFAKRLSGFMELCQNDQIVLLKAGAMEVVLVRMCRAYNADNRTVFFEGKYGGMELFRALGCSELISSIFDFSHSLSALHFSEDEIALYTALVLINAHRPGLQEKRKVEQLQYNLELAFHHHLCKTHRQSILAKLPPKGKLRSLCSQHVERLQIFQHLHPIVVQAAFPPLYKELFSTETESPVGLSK

[2] = first value of the cell FRET/FF/REN, TR-FRET activity assay, read-out: pIC50 (FRET) (converted)
[3] = second value of the cell, Gal4 reporter gene assay in 293T cells, firefly luciferase
[4] = third value of the cell, Gal4 reporter gene assay in 293T cells, renilla normalised luciferase

| SMILES | IC50 [1, 2] [µM] | pIC50 (FF) (RORγ; [3]) | pIC50 (REN) (RORγ; [4]) | IC50 [1] [µM] | pIC50 (FF) (RORγ) | pIC50 (REN) (RORγ) |
| --- | --- | --- | --- | --- | --- | --- |
| Cc1c(C(=O)NCCS(C)(=O)=O)cc(-c2cc(C(C)(C)C)cc(C(C)(C)C)c2)n1CC1CCCCC1 [1/1] | 0.251 | 6.6 | 6.7 |  |  |  |
| Cc1c(C(=O)NCC2(C)COC2)cc(-c2cc(C(C)(C)C)cc(C(C)(C)C)c2)n1CC1CCCCC1 [1/2] |  |  |  | 0.126 | 6.9/7.5/7.4 | 6.9/7.5/7.4 |
| Cc1c(C(=O)NCC(C)(C)C(N)=O)cc(-c2cc(C(C)(C)C)cc(C(C)(C)C)c2)n1CC1CCCCC1 [1/3] |  |  |  | 0.398 | 6.4/7.6/7.5 | 6.4/7.6/7.5 |
| Cc1c(C(=O)NCC(C)(C)NS(C)(=O)=O)cc(-c2cc(C(C)(C)C)cc(C(C)(C)C)c2)n1CC1CCCCC1 [1/4] |  |  |  | 0.316 | 6.5/7.5/7.6 | 6.5/7.5/7.6 |
| Cc1c(C(=O)NCC(N)=O)cc(-c2cc(C(C)(C)C)cc(C(C)(C)C)c2)n1CC1CCCCC1 [1/5] | 1 | 6.3 | 6.2 |  |  |  |
| Cc1c(C(=O)NCC(=O)N(C)C)cc(-c2cc(C(C)(C)C)cc(C(C)(C)C)c2)n1CC1CCCCC1 [1/6] |  |  |  | 0.631 | 6.2/6.7/6.7 | 6.2/6.7/6.7 |
| Cc1c(C(=O)N2CC(O)C2)cc(-c2cc(C(C)(C)C)cc(C(C)(C)C)c2)n1CC1CCCCC1 [1/7] | 0.501 | 6.8 | 6.8 |  |  |  |
| COC1CN(C(=O)c2cc(-c3cc(C(C)(C)C)cc(C(C)(C)C)c3)n(CC3CCCCC3)c2C)C1 [1/8] |  |  |  | 0.316 | 6.5/6.4/6.3 | 6.5/6.4/6.3 |
| Cc1c(C(=O)NCCS(N)(=O)=O)cc(-c2cc(C(C)(C)C)cc(C(C)(C)C)c2)n1CC1CCCCC1 [1/9] |  |  |  | 0.316 | 6.5/6.6/6.7 | 6.5/6.6/6.7 |
| Cc1c(C(=O)NCC2CCOCC2)cc(-c2ccc(S(=O)(=O)NC(C)(C)C)c(C(C)(C)C)c2)n1CC1CCCCC1 [1/10] |  |  |  | 0.501 | 6.3/7.5/7.5 | 6.3/7.5/7.5 |
| Cc1c(C(=O)NCCN2CCOCC2)cc(-c2ccc(S(=O)(=O)NC(C)(C)C)c(C(C)(C)C)c2)n1CC1CCCCC1 [1/11] | 2 | 6.1 | 6.1 |  |  |  |
| Cc1c(C(=O)NC2(C#N)CC2)cc(-c2cc(C(C)(C)C)cc(C(C)(C)C)c2)n1CC1CCCCC1 [1/12] | 1.26 | 6.4 | 6.5 |  |  |  |
| Cc1c(C(N)=O)cc(-c2ccc(S(=O)(=O)NC(C)(C)C)c(C(C)(C)C)c2)n1CC1CCCCC1 [1/13] | 1.26 | 6.2 | 6.1 |  |  |  |
| Cc1c(C(=O)NC2CSC2)cc(-c2cc(C(C)(C)C)cc(C(C)(C)C)c2)n1CC1CCCCC1 [1/14] |  |  |  | 2 | 5.7/6.5/6.6 | 5.7/6.5/6.6 |
| Cc1c(C(=O)NC2CN(C(=O)OC(C)(C)C)C2)cc(-c2cc(C(C)(C)C)cc(C(C)(C)C)c2)n1CC1CCCCC1 [1/15] | 3.16 | 5.5/5.5/5.5 | 5.5/5.5/5.5 |  |  |  |
| Cc1c(C(=O)NC2COC2)cc(-c2cc(OCC(C)(C)C)nc(C(F)(F)F)c2)n1CC1CCCCC1 [1/16] | 6.31 | 6.1 | 5.8 |  |  |  |
| Cc1c(C(=O)NC2COC2)cc(-c2cc(C(C)(C)C)c3c(c2)C(C)(C)CC(=O)N3)n1CC1CCCCC1 [1/18] | 0.631 | 7.1 | 7.0 |  |  |  |
| Cc1c(C(=O)NC2COC2)cc(-c2cc(C(C)(C)C)c3c(c2)C(C)(C)CC(=O)N3C)n1CC1CCCCC1 [1/19] | 1 | 7.0 | 7.1 |  |  |  |
| Cc1c(C(=O)NC2COC2)cc(-c2cc(C(C)C)c3c(c2)C(C)(C)N(C(C)C)S3(=O)=O)n1CC1CCCCC1 [1/22] | 1 | 6.9 | 6.9 |  |  |  |
| COCOc1ccc(-c2cc(C(=O)NC3COC3)c(C)n2CC2CCCCC2)cc1C(C)(C)C [1/24] |  |  |  | 0.631 |  |  |
| CC(C)(O)CNC(=O)c1cc(-c2ccc(S(=O)(=O)NC(C)(C)C)c(C(C)(C)C)c2)n(CC2CCCCC2)c1C(F)(F)F [1/26] |  |  |  | 10 | 5.0/<4.7/<4.7 | 5.0/<4.7/<4.7 |
| CC(C)(C)NS(=O)(=O)c1ccc(-c2cc(C(=O)NCC3(O)CCOCC3)c(C(F)(F)F)n2CC2CCCCC2)cc1C(C)(C)C [1/27] | 12.6 | < 4.7 | < 4.7 |  |  |  |
| COCc1c(C(=O)NCC(C)(C)O)cc(-c2ccc(S(=O)(=O)NC(C)(C)C)c(C(C)(C)C)c2)n1CC1CCCCC1 [1/28] | 0.794 | 6.7 | 6.8 |  |  |  |

| SMILES | IC50 [1, 2] [µM] | pIC50 (FF) (RORγ; [3]) | pIC50 (REN) (RORγ; [4]) | IC50 [1] [µM] | pIC50 (FF) (RORγ) | pIC50 (REN) (RORγ) |
| --- | --- | --- | --- | --- | --- | --- |
| COCc1c(C(=O)NC2CCOCC2)cc(-c2ccc(S(=O)(=O)NC(C)(C)C)c(C(C)(C)C)c2)n1CC1CCCCC1 [1/29] |  |  |  | 0.631 | 6.2/7.2/7.2 | 6.2/7.2/7.2 |
| Cc1c(C(=O)NC2COC2)cc(-c2ccc(C(=O)NC(C)(C)C)c(C(C)(C)C)c2)n1CC1CCCCC1 [1/30] | 3.98 | 6.4 | 6.2 |  |  |  |
| Cc1c(C(=O)NC2COC2)cc(-c2ccc(C(=O)N(C)C(C)(C)C)c(C(C)(C)C)c2)n1CC1CCCCC1 [1/31] | 2 | 6.4 | 6.4 |  |  |  |
| Cc1c(C(=O)NC2COC2)cc(-c2ccc(C(=O)NCC(C)(C)C)c(C(C)(C)C)c2)n1CC1CCCCC1 [1/32] | 1.58 | 6.4 | 6.2 |  |  |  |
| Cc1c(C(=O)NC2COC2)cc(-c2ccc(C(=O)N(C)CC(C)(C)C)c(C(C)(C)C)c2)n1CC1CCCCC1 [1/33] | 0.794 | 6.6 | 6.5 |  |  |  |
| Cc1c(C(=O)NC2COC2)cc(-c2ccc(C(=O)N3CCCCC3)c(C(C)(C)C)c2)n1CC1CCCCC1 [1/34] | 1.26 | 6.8 | 6.7 |  |  |  |
| COC(C)(C)CNC(=O)c1cc(-c2cc(C(C)(C)C)cc(C(C)(C)C)c2)n(CC2CCCCC2)c1C [1/35] |  |  |  | 0.126 | 6.9/6.9/6.9 | 6.9/6.9/6.9 |
| Cc1c(C(=O)NC(C)C(C)(C)O)cc(-c2cc(C(C)(C)C)cc(C(C)(C)C)c2)n1CC1CCCCC1 (centres unmarked) [1/36] |  |  |  | 0.158 | 6.8/6.5/6.6 | 6.8/6.5/6.6 |
| Cc1c(C(=O)N2CCC(C)(O)CC2)cc(-c2cc(C(C)(C)C)cc(C(C)(C)C)c2)n1CC1CCCCC1 [1/37] | 0.316 | 6.8 | 6.8 |  |  |  |
| Cc1c(C(=O)NC2COC2)cc(-c2cc(C(C)(C)C)c3c(c2)C2(CCO3)CC2)n1CC1CCCCC1 [1/38] | 0.251 | 7.2 | 7.3 |  |  |  |
| Cc1c(C(=O)NCC(C)(C)O)cc(-c2cc(C(C)(C)C)c3c(c2)C2(CCO3)CC2)n1CC1CCCCC1 [1/39] |  |  |  | 0.316 | 6.5/6.9/7.0 | 6.5/6.9/7.0 |
| Cc1c(C(=O)NCCCCCO)cc(-c2cc(C(C)(C)C)c3c(c2)C2(CCO3)CC2)n1CC1CCCCC1 [1/40] |  |  |  | 0.251 | 6.6/7.5/7.6 | 6.6/7.5/7.6 |
| Cc1c(C(=O)NCCN2CCOCC2)cc(-c2cc(C(C)(C)C)c3c(c2)C2(CCO3)CC2)n1CC1CCCCC1 [1/41] |  |  |  | 0.501 | 6.3/6.9/7.0 | 6.3/6.9/7.0 |
| Cc1c(C(=O)NC2COC2)cc(-c2cc(C3(C)CC3)c3c(c2)C2(CCO3)CC2)n1CC1CCCCC1 [1/42] | 0.251 | 7.5 | 7.6 |  |  |  |
| COC(C)(C)c1cc(-c2cc(C(=O)NC3COC3)c(C)n2CC2CCCCC2)cc(C(C)(C)C)c1 [1/107] |  |  |  | 0.794 |  |  |
| Cc1c(C(=O)NCC(C)(C)O)cc(-c2cc(C(=O)N(C)C(C)(C)C)cc(C(C)(C)C)c2)n1CC1CCCCC1 [15/7] |  |  |  | 1.26 |  |  |
| Cc1c(C(=O)NCCCNS(C)(=O)=O)cc(-c2cc(C(C)(C)C)c3c(c2)C2(CCO3)CC2)n1CC1CCCCC1 [17/3] |  |  |  | 0.398 |  |  |
| Cc1c(C(=O)NCC2CNCCO2)cc(-c2cc(C(C)(C)C)c3c(c2)C2(CCO3)CC2)n1CC1CCCCC1.Cl (centres unmarked) [17/7] |  |  |  |  | 5.5/<4.7/<4.7 | 5.5/<4.7/<4.7 |
| Cc1c(C(=O)NCC(C)(C)N)cc(-c2cc(C(C)(C)C)c3c(c2)C2(CCO3)CC2)n1CC1CCCCC1.Cl [17/27] |  |  |  |  | 5.6/6.3/6.5 | 5.6/6.3/6.5 |
| Cc1c(C(=O)NC2(C(=O)O)CC2)cc(-c2cc(C(C)(C)C)c3c(c2)C2(CCO3)CC2)n1CC1CCCCC1 [17/50] |  |  |  | 3.16 |  |  |
| Cc1c(C(=O)N2CCS(=O)(=O)CC2)cc(-c2ccc(S(=O)(=O)NC(C)(C)C)c(C(C)(C)C)c2)n1CC1CCCCC1 [17/100] |  |  |  | 0.794 |  |  |
| Cc1c(C(=O)N[C@H]2C[C@](C)(C(=O)O)C2)cc(-c2cc(C(C)(C)C)cc(C3(C)CC3)c2)n1CC1CCCCC1 [17/171] |  |  |  | 0.794 |  |  |
